# From paper PMC8959600 (eLife, 2022)
# Experiments:
# S. flexneri 2457T [1] = experiment: microbe, parasite or virus in culture; format: cell-based, Shigella flexneri; conditions: Shigella flexneri, 2457T
# Protocol: Bacterial inoculum without drug was used as positive control. The bacteria inoculum (1 × 10^5 CFU/mL) for the assay was prepared by diluting a log phase incubated at 37 °C for 3–4 hr. Mueller Hinton agar plates were prepared containing 4xMIC and 10xMIC and inoculated with different concentrations of bacteria (1 × 10^9, 1 × 10^8, and 1 × 10^7 CFU/mL). Plates were prepared in duplicate and incubated overnight at 37 °C. The frequency of spontaneous resistant mutants was calculated by using the formula: FoR = resistant CFUs/inoculum CFUs. The mean of the two plates was reported.
# Shigella flexneri 2457T = experiment: Resazurin growth inhibition, dose response (IC50/IC90) in Müller Hinton medium; format: cell-based; conditions: ATCC700930
# Protocol: We developed a high-throughput screening (HTS) method to identify compounds that could inhibit the growth of Shigella flexneri 2457T in Müller Hinton medium (Sigma Aldrich, UK). We adapted a resazurin reduction protocol from Franzblau et al. as surrogate readout for bacterial viability because it provided a stable signal, a low interference level, and was cost effective ([Franzblau et al., 1998]). Prior to the day of experimentation, one colony was used to inoculate 50 mL Mueller Hinton medium, and the culture was incubated overnight at 37 °C. The next day, 500 μL of the bacterial culture were inoculated into 50 mL fresh Mueller Hinton medium and bacterial growth was measured periodically at 600 nm. When the culture reached OD = 0.4–0.6, the inoculum was diluted to 1 × 10^6 CFU/mL; this bacterial suspension was added to compound pre-dispensed plates for screening.
# The assay was performed in 1536-well polystyrene assay plates (HiBase, μClear, Greiner Bio‐One) and used to screen ~1.7 million compounds from (a) GSK naïve chemical diversity, (b) GSK antibacterial programs, and (c) marketed antimicrobial agents. All commercially available chemicals were purchased from either Sigma Aldrich, UK, AK Scientific, or Fischer Chemicals. The GSK compound screening set was sub-selected from the 8 million compound GSK collection using the principles described by Harper and co-workers ([Harper et al., 2004]). The process to generate the structural filters to remove compounds bearing undesirable/reactive chemotypes and/or non-developable physicochemical properties has been described previously by [Chakravorty et al., 2018]. […]. The set of marketed antibacterial agents included most commercial antimicrobial agents.
# For screening, plates were prepared by dispensing 50 nl of compound from master plates at 1 mM in each well using a LabCyte Echo system. The final assay volume was 5 μl and the final compound concentration was 10 µM. The 11th and 12th columns were growth controls containing 50 nL of DMSO. The 34th and 35th columns contained 50 nL of Moxifloxacin at 20 μM as negative growth controls. Five µl of bacterial inoculum was dispensed into compound pre-dispensed plates using a Multidrop Combi dispenser (Thermo Scientific). Plates were agitated for 10 s to ensure mixing and incubated at 37 °C overnight (16–17 hr). Following overnight culture, 2 µl resazurin solution (Resazurin tablets for milk testing, BDH) was added to each well and incubated at room temperature in the dark for 3 hr. Fluorescence intensity was measured using an Envision plate reader (PerkinElmer). […] Data were analysed using Base software and statistical cut-off analysis was used for ‘hit’ selection following a standard GSK protocol. To calculate the statistical cut-off, percentage growth inhibition was calculated per well according to the plate controls, these values were aggregated to calculate the robust mean and standard deviation (SD) of the distribution. The robust mean was calculated starting from the median and the MAD of the distribution with an iterative process that aimed to remove outliers. Once the mean and SD were calculated, all compounds above mean + 3 SD were selected as primary hits.
# After the initial screen, we generated fresh samples of the primary compound hits and tested them in duplicate against S. flexneri 2457T at 10 μM to confirm activity. The confirmed hit list was narrowed by applying the following filters: a 30% cut-off value, absence of undesirable structural features (e.g. electrophiles, peroxides, and Michael acceptors) and reduced physicochemical risk (maximum five aromatic rings and PFI <8)([Leeson and Young, 2015]). […].
# S. flexneri 2457T [2] = format: in vivo; conditions: mice, 40 mg/kg PO, 24 hr post infection, limit of quantification 80
# S. sonnei 02–1181 = experiment: Solid medium test at 10 µM and dose-response MIC against MDR clinical isolate; format: cell-based, Shigella sonnei
# Protocol: (§1) The confirmed hit list was narrowed by applying the following filters: a 30% cut-off value, absence of undesirable structural features (e.g. electrophiles, peroxides, and Michael acceptors) and reduced physicochemical risk (maximum five aromatic rings and PFI <8)([Leeson and Young, 2015]). […] Briefly, the selected bacteria were cultured on the Luria-Bertani agar overnight at 37 °C (Campylobacter isolates were grown in 2.5% Laked Horse Blood cation-adjusted Mueller Hinton medium (CAMHB, Sigma Aldrich) and incubated in microaerophilic conditions (10% CO2, 5% O2 and 85% N2) at 42 °C); colonies were added to sterile PBS to form 0.5 McFarland solutions. All chemical testing was performed at an initial concentration of 10 μM. Bacterial suspensions were evenly spread on Mueller-Hinton agar by sterile cotton swabs (Medical Wire – MWE). […] Plates were incubated overnight at 37 °C. The activity of the chemical was recorded as being active (yes) or non-active (no) for each of the tested chemicals.
# (§2) MICs were evaluated using the micro dilution assay in Müller Hinton broth using 1 mM chemical stock solutions, and a final concentration of 5 × 10^5 CFU/mL bacteria. Twofold serial dilutions were prepared in 96-well plates at concentration ranging from 1 μM to 7.8 nM. 100 μL bacteria were added and incubated at 37 °C overnight; 10 μl of each solution was dropped onto Luria-Bertani agar and incubated overnight at 37 °C for the detection of bacterial growth. Results were interpreted as minimal concentration necessary to inhibit growth.
# S. flexneri EG478 = experiment: as above; format: cell-based, Shigella flexneri; conditions: for bactericidal activity: MDR clinical isolate S. flexneri EG478; for MIC range: range over S. flexneri EG478 and S. sonnei 02-1181
# Protocol: as §1, §2
# [3] = Intestinal distribution by MALDI imaging in mice; format: in vivo
# Protocol: One animal was euthanised at 0.25, 0.5, 1, and 4 hr respectively and 2.5–3 cm sections of the intestine (duodenum, jejunum, ileum, caecum, and colon) were collected and frozen at –80 °C. For quantitative LCMS analysis of intestine homogenate, samples were thawed at ambient temperature, mixed with water (1:1) and homogenised by turrax (10 sec). Subsequently, 20 µL of homogenate were mixed with 200 µl of ACN: MeOH (80:20) and filtered using 0.2 µm filter plate (Whatman). LCMS analysis was performed as described in previous section. For MALDI imaging, 50 mm of the central part of each intestinal section were cut and mounted in a sample disc on dry ice with a solution of 1% methylcellulose (Sigma Aldrich, UK). Next, tissue sections of 12 µm (sagital sections) were obtained using a cryostat (Leica CM3600; Leica Microsystems Inc, Wetzlar, Germany) at –20 °C and collected in conductive-coated slides for MALDI Imaging (Bruker Daltonic). After the ‘MALDI’ section was obtained a consecutive section for histology was taken. Prior to matrix coating, samples for MALDI were optical scanned in a PathScanner. The matrix deposition was conducted in a sprayer ImagePrep System (Bruker Daltonic) which uses vibrational vaporisation technology. As matrix solution α-CHCA (α-Cyano-4-hydroxycinnamic acid (Sigma Aldrich) dissolved in 70:30 methanol/water (v/v) containing 0.2% TFA at 7 mg/mL was used. MALDI MSI data were obtained using a Bruker UltrafleXtream MALDI TOF/TOF (Bruker Daltonic, Germany)).
# Both compounds were analysed in positive mode using a LIFT method. For Tebipenem, parent compound was 384.32 and the detection mass window between m/z 0–400. 298.164 were the most intensive fragment. […] We used a laser shut at 85% power with a 50 μm step size, 100 times at raster spot in random wak mode. FlexImaging 4.1(bruker Daltoninc, Germany) were used for the data visualisation. […]
# MALDI Imaging is not a quantitative technique, therefore, the colour scale of images is relative to the maximum intensity (100 corresponds with the maximal signa in each slide). […]
# S. flexneri 2457T [4] = experiment: Gnotobiotic piglet Shigella infection model, efficacy; format: in vivo; conditions: piglets
compound,measurement,setting,value
CC1(C)S[C@@H]2[C@H](NC(=O)[C@H](N)c3ccccc3)C(=O)N2[C@H]1C(=O)O [Ampicilin],MIC,S. flexneri 2457T [1],7.5 µM
CC[C@H]1OC(=O)[C@H](C)[C@@H](O[C@H]2C[C@@](C)(OC)[C@@H](O)[C@H](C)O2)[C@H](C)[C@@H](O[C@@H]2O[C@H](C)C[C@H](N(C)C)[C@H]2O)[C@](C)(O)C[C@@H](C)CN(C)[C@H](C)[C@@H](O)[C@]1(C)O [Azithromycin],IC90,Shigella flexneri 2457T,7.49 µg/mL
CO/N=C(\C(=O)N[C@@H]1C(=O)N2C(C(=O)O)=C(CSc3nc(=O)c(=O)[nH]n3C)CS[C@H]12)c1csc(N)n1 [Ceftriaxone],IC90,Shigella flexneri 2457T,0.067 µg/mL
same,MIC,S. flexneri 2457T [1],0.2 µM
O=C(O)c1cn(C2CC2)c2cc(N3CCNCC3)c(F)cc2c1=O [Ciprofloxacin],IC90,Shigella flexneri 2457T,0.02 µg/mL
same,MIC,S. flexneri 2457T [1],0.06 µM
same,S. flexneri CFUs in gastrointestinal tissue,S. flexneri 2457T [2],< 80 CFU
C[C@@H](O)[C@H]1C(=O)N2C(C(=O)O)=C(S[C@@H]3CN[C@H](C(=O)Nc4cccc(C(=O)O)c4)C3)[C@H](C)[C@H]12 [Ertapenem],bactericidal activity,S. sonnei 02–1181,greatest bactericidal activity
same,bactericidal activity,S. flexneri EG478,greatest bactericidal activity
same,MIC range,S. flexneri EG478,0.04 to 0.15 µg/mL
C[C@@H](O)[C@H]1C(=O)N2C(C(=O)O)=C([C@H]3CCCO3)S[C@H]12 [Faropenem],MIC range,S. flexneri EG478,2.5 to 6.25 µg/mL
CC1(C)S[C@@H]2[C@H](/N=C/N3CCCCCC3)C(=O)N2[C@H]1C(=O)O [Mecillinam],IC90,Shigella flexneri 2457T,0.058 µg/mL
same,MIC,S. flexneri 2457T [1],0.2 µM
C[C@@H](O)[C@H]1C(=O)N2C(C(=O)O)=C(S[C@@H]3CN[C@H](C(=O)N(C)C)C3)[C@H](C)[C@H]12 [Meropenem],bactericidal activity,S. sonnei 02–1181,greatest bactericidal activity
same,bactericidal activity,S. flexneri EG478,greatest bactericidal activity
same,MIC range,S. flexneri EG478,0.15 µg/mL
COc1c(N2C[C@@H]3CCCN[C@@H]3C2)c(F)cc2c(=O)c(C(=O)O)cn(C3CC3)c12 [Moxifloxacin],MIC,S. flexneri 2457T [1],0.2 µM
CO[C@H]1/C=C/O[C@@]2(C)Oc3c(C)c(O)c4c(O)c(c(/C=N/N5CCN(C)CC5)c(O)c4c3C2=O)NC(=O)/C(C)=C\C=C\[C@H](C)[C@H](O)[C@@H](C)[C@@H](O)[C@@H](C)[C@H](OC(C)=O)[C@@H]1C [Rifampicin],MIC,S. flexneri 2457T [1],3.7 µM
C[C@@H](O)[C@H]1C(=O)N2C(C(=O)OCOC(=O)C(C)(C)C)=C(SC3CN(C4=NCCS4)C3)[C@H](C)[C@H]12 [Tebipenem pivoxil],MALDI detection in the intestinal lumen,[3]; 60 min after oral pro-drug,not detectable in the lumen
same,MALDI detection within enterocytes,[3]; after oral pro-drug,not detected within enterocytes
same,histopathology of the large intestine vs placebo,S. flexneri 2457T [4]; day six post infection,marked reduction in intestinal lesions and inflammation
same,CFU/g Shigella in stool,"S. flexneri 2457T [4]; single dose given 24 hr after infection, from 1 × 10^7, within 24 hr",zero
